Measured values published in paper PMC7414126 (Scientific Reports, 2020).
Where two headings read alike, the source gives them in different places.

How the values were obtained:
hH2R [1] = details: [125I]-iodoaminopotentidine, re-calculated from published Ki; cited from earlier work
NLuc-hH2R [2] = biological target: T1, NLuc-hH2R (Homo sapiens, UniProt P25021); test: BRET-based competition binding with fluorescent ligand 8; details: competition with 8 (c = 50 nM), live HEK293T cells stably expressing NLuc-hH2R, 60 min; mean ± SEM; read-out: pKi (NanoBRET) (converted)
T1 construct: membrane signal peptide of the murine 5HT3A receptor (N); expressed in transfected cells
T1 sequence (P25021 whole entry): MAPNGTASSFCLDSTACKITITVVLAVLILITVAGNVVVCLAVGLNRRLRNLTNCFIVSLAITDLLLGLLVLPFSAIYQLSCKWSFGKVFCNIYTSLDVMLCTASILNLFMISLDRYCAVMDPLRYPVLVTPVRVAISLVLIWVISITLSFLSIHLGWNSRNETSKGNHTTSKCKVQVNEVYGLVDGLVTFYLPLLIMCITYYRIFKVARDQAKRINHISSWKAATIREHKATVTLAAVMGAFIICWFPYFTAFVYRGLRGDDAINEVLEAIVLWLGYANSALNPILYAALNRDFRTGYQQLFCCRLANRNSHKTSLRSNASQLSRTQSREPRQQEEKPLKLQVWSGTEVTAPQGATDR
Description: (§1) KG, Wertheim, Germany). The cells were then incubated at 37 °C in a humidified atmosphere (no additional CO2) overnight. […] After 60 min incubation time at 27 °C, 10 μL of the substrate furimazine, which was diluted according to manufacturer's protocol beforehand, were added. After 5 min of equilibration time at 27 °C, the measurement was started. […] After addition of the diluted substrate, the plate was placed inside the reader for 5 min to equilibrate. […] Dissociation experiments were conducted in wells, which have been preincubated with 8 as described above for association experiments. […] All measurements were performed on a TECAN InfiniteLumi plate reader (TECAN, Grödig, Austria) at 27 °C using the Blue2 NB (460 nm ± 35 nm, bandpass) and the Red NB (> 610 nm, longpass) filter combination with an integration time of 100 ms. For the kinetic experiments, integration time was increased to 500 ms for both channels to reduce noise. BRET ratios were calculated by dividing the acceptor emission (red NB) by the donor luminescence (Blue2 NB). For all BRET binding experiments, specific binding was calculated by subtracting non-specific binding from total binding yielding the “corrected BRET ratio”. For saturation binding experiments, total and non-specific binding were fitted simultaneously using the “one-site total and nonspecific binding” fit. Specific binding was fitted accordingly applying the “one-site specific binding” fit. […] The normalized competition binding curves were then fitted with a four-parameter logistic fit yielding pIC50-values. These were transformed into pKi-values using the Cheng-Prusoff equation[38].

hH2R-Gsαs fusion protein [3] = biological target: T2, hH2R-Gsαs fusion protein (Homo sapiens, UniProt P25021+P63092); details: [3H]UR-DE257; cited from earlier work
T2 construct: made in house; host or cells: Sf9 insect cells (recombinant baculovirus), membrane preparation
T2 sequence (P25021+P63092 fused): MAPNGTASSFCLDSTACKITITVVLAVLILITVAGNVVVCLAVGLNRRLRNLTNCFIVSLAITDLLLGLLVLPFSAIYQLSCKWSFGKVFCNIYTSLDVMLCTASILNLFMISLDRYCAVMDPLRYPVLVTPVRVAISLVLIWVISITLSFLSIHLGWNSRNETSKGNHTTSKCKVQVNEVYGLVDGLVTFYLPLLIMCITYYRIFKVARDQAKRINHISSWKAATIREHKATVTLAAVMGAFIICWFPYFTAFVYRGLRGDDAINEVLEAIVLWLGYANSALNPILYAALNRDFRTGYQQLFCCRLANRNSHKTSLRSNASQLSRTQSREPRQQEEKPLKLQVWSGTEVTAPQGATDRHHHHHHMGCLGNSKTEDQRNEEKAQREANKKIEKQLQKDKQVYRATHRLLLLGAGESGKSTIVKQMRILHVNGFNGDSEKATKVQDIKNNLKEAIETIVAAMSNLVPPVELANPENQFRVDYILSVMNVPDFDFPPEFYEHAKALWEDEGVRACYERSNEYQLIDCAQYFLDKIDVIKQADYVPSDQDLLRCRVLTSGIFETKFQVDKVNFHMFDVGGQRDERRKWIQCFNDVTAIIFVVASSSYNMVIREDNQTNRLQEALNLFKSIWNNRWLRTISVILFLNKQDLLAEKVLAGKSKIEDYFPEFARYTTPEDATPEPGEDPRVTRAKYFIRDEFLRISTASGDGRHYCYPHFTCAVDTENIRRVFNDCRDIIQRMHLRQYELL

hH2R-Gsαs fusion protein [4] = biological target: T3, hH2R-Gsαs fusion protein (Homo sapiens, UniProt P25021); test: Radioligand saturation binding on Sf9 membranes; details: membranes of Sf9 insect cells expressing hH2R-Gsαs
T3 construct: made in house; host or cells: Sf9 insect cells (recombinant baculovirus), membrane preparation
T3 sequence (P25021+P63092 fused): as above
Description: (§2) All data analysis was performed using Prism 5.0c (GraphPad, San Diego, CA, USA).
Supplementary Figure S7. […] Saturation binding assay was performed as previously described.^3

NLuc-hH2R [5] = biological target: T1, NLuc-hH2R; test: NanoBRET saturation binding assay
Description: as §1

hH2R-Gsαs fusion protein [6] = biological target: T3, hH2R-Gsαs fusion protein; test: Radioligand competition binding with [3H]UR-DE257 on Sf9 membranes; details: read-out: pKi (RL comp. binding Sf9 membranes) (converted)
Description: as §2

[7] = Chemical stability in binding buffer (HPLC); assay type: physicochemical
Description: The chemical stability of the fluorescent H2R ligands UR-KAT478 (8), UR-KAT515 (9) and UR-KAT514 (10) was investigated at physiological pH (7.4) in binding buffer (12.5 mM MgCl2, 1 mM EDTA and 75 mM Tris/HCl, pH 7.4)^1 and in case of UR-KAT514 (10) as well in a mixture of DMSO/binding buffer 1:1. Incubation was started by addition of 27.5 μL of a 2.5 mM solution of the respective compounds in DMSO/Millipore H2O 1:1, which were freshly prepared from a 5 mM stock solution in DMSO, to 522.5 μL of binding buffer or DMSO/binding buffer 1:1 yielding a final concentration of […]. The samples were shaken for up to 4 days at 700 rpm. After indicated time periods, a 70 μL aliquot was taken and diluted with 70 µL of a mixture of MeCN, Millipore H2O and 10% aqueous TFA (60:90:1). Prior to HPLC analysis, the samples were stored at -20 °C. 50 μL of the resulting solution were analyzed by HPLC as described in the experimental section. The absorption was detected at 220 nm. The blank HPLC run was performed under identical conditions without any ligand.

hH2R [8] = biological target: T4, hH2R (Homo sapiens, UniProt P25021); test: Flow cytometric saturation binding assay with HEK293T-hH2R-qs5-HA cells; set-up: expressed in transfected cells; host or cells: HEK293T-hH2R-qs5-HA cells; details: saturation binding at HEK293T-hH2R-qs5-HA cells; mean ± SEM; read-out: pKd (Flow cytometry) (converted)
T4 sequence (P25021 whole entry): as the sequence (P25021 whole entry) above
Description: All flow cytometric measurements were performed with FACSCanto™II flow cytometer (Becton Dickinson, Heidelberg, Germany), equipped with an argon laser (488 nm) and a red diode laser (633 nm) (settings: FCS: A, log, 0 V; SSC: A, log, 252 V; ACP: A,H,W, log, 350 V or PerCP-Cy5-5: A,H, log 485 V or PE: A,H,W, log, 420 V) according to general protocols with minor modifications.^4,5 All measurements were performed in duplicate and recorded either in channel PerCP-Cy5 (Py-1, excitation: 488 nm), APC (BODIPY 630/650, excitation: 633 nm) or PE (TAMRA, excitation: 488 nm). Data acquisition was stopped after 10,000 gated events.
Cell culture and preparation of HEK293T-hH2R-qs5-HA cells was performed as described.^4 Briefly, cells were maintained in 25 or 175 cm^2 flasks (Sarstedt, Nümbrecht, Germany) in a humidified atmosphere (95% air, 5% CO2) at 37 °C using Dulbecco`s Modified Eagle`s Medium supplemented with 2 mM L-glutamine (Sigma-Aldrich, Munich, Germany), 10% FCS, 400 µg/mL geneticin (G418), and 100 µg/mL hygromycin B (AG Scientific, San Diego, CA, USA). On the day of the experiment, cells were detached with trypsin/EDTA (0.05%/0.2%) and centrifuged (500 x g, 5 min). The cell pellet was resuspended in Leibovitz’ L-15 medium containing 1% FCS and the cell density was adjusted to 1 x 10^6 cells/mL. The serial dilutions of the tested fluorescent ligands and famotidine (competitor, for non-specific binding) were prepared in DMSO/H2O (1:1, v/v). All incubation steps were performed in 96-well Primaria^TM plates (CORNING, NY, USA). 200 µL of the adjusted cell suspension were either added to 2 µL of DMSO/H2O (1:1, v/v, total binding) or to 2 µl of famotidine (300-fold excess over the fluorescent ligand, non-specific binding). Incubation was started by addition of 2 µL of the respective fluorescent ligand in different concentrations (100-fold concentrated with respect to the final concentration). […] Samples were transferred to 5 mL polystyrol FACS tubes (Sarstedt, Nümbrecht, Germany) and measured immediately. […]

hH2R [9] = biological target: T4, hH2R; test: β-Arrestin2 recruitment assay (split-luciferase complementation), HEK293T-ARRB2-H2R cells; assay type: cell-based; set-up: expressed in transfected cells; host or cells: HEK293T-ARRB2-H2R cell line; details: read-out: pKb (β-arrestin2 recruitment) (converted)
Description: One day prior to the experiment, the cells were detached with trypsin/EDTA (0.05%/0.2%) and were centrifuged (500 x g, 5 min). The cells were resuspended in Leibovitz’ L-15 medium + 5% FCS + 10 mM HEPES and the density of the suspension was adjusted to 1.25 x 10^6 cells/mL (agonist mode) or 1.4 x 10^6 cells/mL (antagonist mode). 80 µL (agonist mode) or 70 µL (antagonist mode) of the cell suspension were seeded in white, tissue culture-treated, flat bottom 96-well microtiter plates (Brand, Wertheim, Germany). The cells were incubated at 37 °C overnight in a water saturated atmosphere w/o additional CO2. […] In the meantime, serial dilutions of the tested compounds (10-fold concentrated with respect to the final concentration) were prepared in L-15 + 10 mM HEPES and pre-warmed to 37 °C. After the baseline-read, the dilutions of the test compounds (10 µL/well) were transferred to the 96-well plate. […] For the determination of antagonism, the dilutions of the test compounds (10 µL/well) were transferred to the 96-well plate directly after the addition of D-luciferin (as described above) and the baseline was recorded like in the agonist mode. […] Normalized data were fitted applying a four-parameter logistic fit yielding pIC50 values, which were then transformed into pKb values using the Cheng-Prusoff equation.^8 All data analysis was performed using Prism 5.0c (GraphPad, San Diego, CA, USA).

[10] = representative NanoBRET saturation isotherm, result from single experiment, HEK293T NLuc-hH2R, read-out: Kd* (single experiment)
[11] = saturation binding, live HEK293T cells stably expressing NLuc-hH2R, mean ± SEM, read-out: pKd (NanoBRET) (converted)

Q: Which “pKi (RL comp. binding CHO membranes)” value (hH2R [1]) does the source give for `CN/C(=N/CCSCc1nc[nH]c1C)NC#N` [Compound 2, cimetidine] here?
A: Its value is 6.18[32].

Q: Which “pKi (RL comp. binding CHO membranes)” value (hH2R [1]) does the source give for `CNC(=C[N+](=O)[O-])NCCSCc1ccc(CN(C)C)o1` [Compound 3, ranitidine] here?
A: Its value is 7.07[32].

Q: With `NC(N)=Nc1nc(CSCCC(N)=NS(N)(=O)=O)cs1` [Compound 4, famotidine] as the compound, how does the Ki (NLuc-hH2R [2]) read?
A: Its Ki is 11.5 nM.

Q: And the “pKi (RL comp. binding Sf9 membranes)” value (hH2R-Gsαs fusion protein [3])?
A: The value was 6.87[28].

Q: And the “pKi (RL comp. binding CHO membranes)” value (hH2R [1])?
A: Its value is 7.80[32].

Q: For `[3H]CC([3H])C(=O)NCCCCCCNc1c(NCCCOc2cccc(CN3CCCCC3)c2)c(=O)c1=O` (stereo not drawn) [Compound 7], which Kd (hH2R-Gsαs fusion protein [4]) is on record?
A: Its Kd is 11.2 nM.

Q: Which results are given for `CN(C)c1ccc2c(-c3ccc(C(=O)NCCCCNc4c(NCCCOc5cccc(CN6CCCCC6)c5)c(=O)c4=O)cc3C(=O)[O-])c3ccc(N(C)C)cc3[o+]c2c1` [Compound 9, 2-(3,6-Bis(dimethylamino)xanthylium-9-yl)-5-((4-((3,4-dioxo-2-((3-(3-(piperidin-1-ylmethyl)phenoxy)propyl)amino)cyclo-but-1-en-1-yl)amino)butyl)carbamoyl)benzoate]?
A: Kd (NLuc-hH2R [5]; [10]): 143 nM; Kd (NLuc-hH2R [5]; [11]): 145 nM; Ki (hH2R-Gsαs fusion protein [6]): 100 nM; Chemical stability (decomposition) ([7]; binding buffer pH 7.4, rt, 24 h incubation): no decomposition; Kd (hH2R [8]): 562 nM; Kb (hH2R [9]): 66.1 nM

Q: Which results are given for `O=C(CCCCCNC(=O)COc1ccc(/C=C/C2=[N+]3C(=Cc4ccc(-c5cccs5)n4[B-]3(F)F)C=C2)cc1)NCCCCNc1c(NCCCOc2cccc(CN3CCCCC3)c2)c(=O)c1=O` [Compound 10]?
A: Kd (NLuc-hH2R [5]; [10]): 2.99 nM; Kd (NLuc-hH2R [5]; [11]): 2.57 nM; Ki (hH2R-Gsαs fusion protein [6]): 4.47 nM; Adsorption to plastic vessel ([7]; BB/DMSO 1:1, rt): reduced adsorption; Chemical stability (degradation) ([7]; binding buffer pH 7.4, rt): no chemical degradation; HPLC signal of compound after incubation (adsorption to plastic vessel) ([7]; binding buffer pH 7.4, rt, after one hour): almost no signal; Kd (hH2R [8]): 13.8 nM; Kb (hH2R [9]): 8.13 nM

Q: With `CCCCCCCCCCCCNC(=N)NCCCc1sc(N)nc1C` [Compound 11, reference compound] as the compound, how does the Ki (NLuc-hH2R [2]) read?
A: Its Ki is 1020 nM.

Q: And the Ki (hH2R-Gsαs fusion protein [6])?
A: Its Ki is 251 nM.

Q: For `Cc1nc(N)sc1CCCNC(=N)NCCCCCCCCNC(=N)NCCCc1sc(N)nc1C` [Compound 12, reference compound], which Ki (NLuc-hH2R [2]) is on record?
A: The Ki was 1320 nM.

Q: What about the Ki (hH2R-Gsαs fusion protein [6]) of the same compound?
A: Its Ki is 457 nM.
